Assay results taken from patent US5302514A, “Maltooligoside derivative, reagent for determining α-amylase activity containing the same as effective ingredient and a process for determining the α-amylase activity using same” (Kikkoman Corporation, priority 1991, dated 1994).

How the values were obtained:
Assay type in all cases: biochemical
[1] = target: T1, amylase derived from human pancreatic juice (human P type α-amylase) (Homo sapiens, UniProt P04746); assay: Hydrolysis rate, P type α-amylase; conditions: relative to hydrolysis rate of 3 mM G5CNP defined as 10, substrate 7-9 times the Km
T1 sequence (P04746 16-511): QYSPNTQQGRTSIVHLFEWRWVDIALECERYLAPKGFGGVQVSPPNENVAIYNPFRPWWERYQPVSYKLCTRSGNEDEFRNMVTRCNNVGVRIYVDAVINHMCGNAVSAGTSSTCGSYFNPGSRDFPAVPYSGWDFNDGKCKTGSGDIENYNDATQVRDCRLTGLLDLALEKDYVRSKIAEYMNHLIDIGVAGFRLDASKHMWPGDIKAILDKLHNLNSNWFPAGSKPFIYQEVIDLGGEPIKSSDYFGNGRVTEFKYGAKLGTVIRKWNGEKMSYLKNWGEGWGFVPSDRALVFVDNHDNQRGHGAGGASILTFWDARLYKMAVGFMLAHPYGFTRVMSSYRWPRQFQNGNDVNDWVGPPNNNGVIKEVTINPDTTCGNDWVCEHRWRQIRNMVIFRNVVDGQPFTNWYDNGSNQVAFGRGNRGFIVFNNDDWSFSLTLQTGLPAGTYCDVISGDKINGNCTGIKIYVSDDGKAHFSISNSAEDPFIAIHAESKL
Procedure: (§1) The coupled enzyme solution was prepared in the same manner as in the step (2) of Example 5.
(§2) Commercially available human P type and S type α-amylase solutions having a concentration of ca. 500 IU/l were prepared in the same manner as in the step (3) of Example 5.
(§3) With 250 μl of the α-amylase solution prepared in (iii) was mixed 1.0 ml of the coupled enzyme. The mixture was heated at 37° C. for 1 minute, and 2.0 ml of the substrate solution was added with stirring to the mixture. The variation of absorbance at 400 nm was measured for 2 minutes after heating the mixture at 37° C. for 2 minutes. The hydrolysis rate of each substrate, namely the variable absorbance per unit time was expressed with the relative values to the hydrolysis rate of 3 mM G5CNP (the reference substrate) which is defined as 10.
P: amylase derived from human pancreatic juice, […]

[2] = system: coupled enzyme (α-glucosidase derived from yeast and β-glucosidase derived from almond); assay: Coupled enzyme resistance test; conditions: 37° C., pH 7.0, FIG. 3 / FIG. 4; for hydrolysis by the coupled enzyme (in words): 3.0 mM substrate solution, α-glucosidase 1053 units/ml, β-glucosidase 15.5 units/ml, 400 nm for 5 minutes; for stability in a measuring system (in words): coupled enzyme system
Procedure: 2-chloro-4-nitrophenyl 5^5 -eno-4^5 -O-mesyl-β-D-maltopentaoside (molecular weight: 1044; referred to hereinafter as substrate of the present invention) obtained in Example 1 was dissolved in a 50 mM phosphate buffer (pH=7.0) containing 40 mM NaCl and 2 mM MgCl2 to a concentration of 3.0 mM.
2-chloro-4-nitrophenyl β-D-maltopentaoside (molecular weight: 984; referred to hereinafter as reference substrate) obtained in the conventional method was dissolved in a 50 mM phosphate buffer (pH=7.0) containing 40 mM NaCl and 2 mM MgCl2 to a concentation of 3.0 mM.
Coupled enzyme solution was prepared by dissolving a commercially available α-glucosidase derived from yeast and a commercially available β-glucosidase derived from almond in a 50 mM phosphate buffer (pH=7.0) containing 40 mM NaCl and 2 mM MgCl2 to a concentration of 1053 units/ml and 15.5 units/ml, respectively. As the commercially available α- and β-glucosidases, those available from Toyobo Co., Ltd. were used.
After 1.0 ml of a coupled enzyme solution was heated at 37° C. for 5 minutes, it was mixed sufficiently with 2.0 ml of the substrate solution of the present invention or the reference substrate solution and heated at 37° C. for 3 minutes. Then, variations of the absorbance at a wavelength of 400 nm were measured for 5 minutes.
The test was carried out in the same manner as in Example 9 except that 2-chloro-4-nitrophenyl 6^5 -azido-6^5 -deoxy-β-D-maltopentaoside (molecular weight: 1009; referred to hereinafter as the substrate of the present invention) obtained in Example 3 was employed as the substrate (a). In FIG. 4, marks Δ show the plottings of the substrate solution (a) and the marks .quadrature. show the plottings of the substrate solution (b).

[3] = target: T2, amylase derived from human saliva (human S type α-amylase) (Homo sapiens, UniProt P0DUB6); assay: Hydrolysis rate, S type α-amylase; conditions: relative to hydrolysis rate of 3 mM G5CNP defined as 10, substrate 7-9 times the Km
T2 sequence (P0DUB6 16-511): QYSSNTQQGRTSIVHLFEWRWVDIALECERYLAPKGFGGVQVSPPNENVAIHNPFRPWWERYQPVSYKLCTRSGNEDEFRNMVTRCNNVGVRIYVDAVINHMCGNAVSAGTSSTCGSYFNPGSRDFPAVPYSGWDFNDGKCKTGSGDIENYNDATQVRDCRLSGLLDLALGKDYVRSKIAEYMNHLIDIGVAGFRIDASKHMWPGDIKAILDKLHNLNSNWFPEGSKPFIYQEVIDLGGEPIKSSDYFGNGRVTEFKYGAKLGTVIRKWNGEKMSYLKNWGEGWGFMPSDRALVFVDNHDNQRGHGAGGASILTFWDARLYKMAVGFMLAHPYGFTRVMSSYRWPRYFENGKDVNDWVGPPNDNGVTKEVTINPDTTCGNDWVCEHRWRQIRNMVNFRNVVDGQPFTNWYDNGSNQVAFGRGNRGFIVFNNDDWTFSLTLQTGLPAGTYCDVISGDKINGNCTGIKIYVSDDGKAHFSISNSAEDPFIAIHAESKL
Procedure: as §1, §2, §3
S: amylase derived from human saliva.

## C=C1O[C@H](O[C@H]2[C@H](O)[C@@H](O)[C@@H](O[C@H]3[C@H](O)[C@@H](O)[C@@H](O[C@H]4[C@H](O)[C@@H](O)[C@@H](O[C@H]5[C@H](O)[C@@H](O)[C@H](Oc6ccc([N+](=O)[O-])cc6Cl)O[C@@H]5CO)O[C@@H]4CO)O[C@@H]3CO)O[C@@H]2CO)[C@H](O)[C@@H](O)[C@@H]1OS(C)(=O)=O [EMG5CNP, 2-chloro-4-nitrophenyl 5^5-eno-4^5 -O-mesyl-β-D-maltopentaoside]
[1]
  Hydrolysis rate: 10
[2]
  hydrolysis by the coupled enzyme (in words): not hydrolyzed
  stability in a measuring system (in words): stable
[3]
  Hydrolysis rate: 10

## [N-]=[N+]=NC[C@H]1O[C@H](O[C@H]2[C@H](O)[C@@H](O)[C@@H](O[C@H]3[C@H](O)[C@@H](O)[C@@H](O[C@H]4[C@H](O)[C@@H](O)[C@@H](O[C@H]5[C@H](O)[C@@H](O)[C@H](Oc6ccc([N+](=O)[O-])cc6Cl)O[C@@H]5CO)O[C@@H]4CO)O[C@@H]3CO)O[C@@H]2CO)[C@H](O)[C@@H](O)[C@@H]1O [ADG5CNP, 2-chloro-4-nitrophenyl 6^5-azido-6^5-deoxy-β-D-maltopentaoside]
[1]
  Hydrolysis rate: 10
[2]
  hydrolysis by the coupled enzyme (in words): not hydrolyzed
  stability in a measuring system (in words): stable
[3]
  Hydrolysis rate: 10
